Results reported in PubChem BioAssay AID488877 (The Scripps Research Institute Molecular Screening Center, 2010).
The source made the active and inactive calls. No rule for the calls is given here.

Test system: Vero cells SARS-CoV infected, viability, ATP luminescence
Test: PubChem AID 488877

## CC(C)(C)NC(=O)C(c1cccnc1)N(C(=O)c1ccco1)c1ccc(C(C)(C)C)cc1 (stereo unspecified)
  EC50: > 10 µM (inactive)
